In brackets after ≈: the same amount, converted by molar mass. Where a name gives a salt, the structure may show the parent alone.
Legend:
Hygroscopicity (VTI) = type: physicochemical; conditions: free base form
[1] = Solubility in various solvents/solubilizing mixtures; type: physicochemical
Excerpt: The solubility of LSN 487355 in a variety of vehicles is illustrated in Table III.

Caco-2 = Caco-2 permeability; type: in vitro ADME; conditions: free base form
Caco-2 permeability = type: in vitro ADME; conditions: human, Caco-2, free base form; for efflux ratio: read-out: B-A/A-B ratio
pKa = type: physicochemical; conditions: free base form
[2] = Single excipient solubility screen; type: physicochemical
Excerpt: A single excipient screen was completed in an attempt to find an appropriate excipient for a liquid formulation of LSN 487355. […]

Dynamic vapor sorption = type: physicochemical

For `Cc1onc2c1c(=O)n([C@H]1CCC[C@@H](CNC(=O)c3ccc(F)nc3)C1)c1cccc(Cl)c21` [LSN 487355], which “Hygroscopicity (VTI)” value (Hygroscopicity (VTI)) is on record?
The value was “Non-hygroscopic”.

And the solubility ([1]; 4% DMSO in deionized water, kinetic from dmso stock, 4% DMSO, compound dissolved in solvent first, then deionized water added)?
Its solubility is 2 µg/mL (≈ 0.00427 mM).

What about the solubility ([1]; 5% N-methyl-2-pyrrolidone in deionized water, aqueous with cosolvent or surfactant or cyclodextrin, kinetic from dmso stock, 5% N-methyl-2-pyrrolidone, compound dissolved in solvent first, then deionized water added) of the same compound?
Its solubility is 4 µg/mL (≈ 0.00853 mM).

And the solubility ([1]; 10% DMSO in deionized water, aqueous with cosolvent or surfactant or cyclodextrin, kinetic from dmso stock, 10% DMSO, compound dissolved in solvent first, then deionized water added)?
Its solubility is 4 µg/mL (≈ 0.00853 mM).

And the solubility ([1]; 10% N-methyl-2-pyrrolidone in deionized water, aqueous with cosolvent or surfactant or cyclodextrin, kinetic from dmso stock, 10% N-methyl-2-pyrrolidone, compound dissolved in solvent first, then deionized water added)?
Its solubility is 30 µg/mL (≈ 0.064 mM).

What about the solubility ([1]; Capmul PG8, oil or lipid) of the same compound?
Its solubility is 12000 to 15000 µg/mL (≈ 25.6 to 32 mM).

What about the solubility ([1]; DMA, organic solvent or mixture) of the same compound?
The solubility was 208000 to 416000 µg/mL (≈ 444 to 887 mM).

And the solubility ([1]; Ethanol, organic solvent or mixture)?
Its solubility is 1400 µg/mL (≈ 2.99 mM).

What about the solubility ([1]; Ethyl Oleate, oil or lipid) of the same compound?
The solubility was less than 2000 µg/mL.

And the solubility ([1]; Ethyl acetate, organic solvent or mixture)?
The solubility was 3 µg/mL (≈ 0.0064 mM).

What about the solubility ([1]; Glycofurol, organic solvent or mixture) of the same compound?
Its solubility is greater than 2000 µg/mL.

And the solubility ([1]; Labrafac Hydro WL 219, oil or lipid)?
Its solubility is greater than 2000 µg/mL.

What about the solubility ([1]; Labrafac Lipophile WL 1349, oil or lipid) of the same compound?
Its solubility is less than 2000 µg/mL.

And the solubility ([1]; Labrafil M1944CS, oil or lipid)?
Its solubility is less than 2000 µg/mL.

And the solubility ([1]; Labrafil M2125CS, oil or lipid)?
Its solubility is less than 2000 µg/mL.

And the solubility ([1]; Labrasol, oil or lipid)?
The solubility was 4000 to 5000 µg/mL (≈ 8.53 to 10.7 mM).

And the solubility ([1]; NMP, organic solvent or mixture)?
The solubility was greater than 563000 µg/mL.

And the solubility ([1]; Olive oil, oil or lipid)?
Its solubility is less than 2000 µg/mL.

What about the solubility ([1]; PEG 300, organic solvent or mixture) of the same compound?
Its solubility is greater than 2000 µg/mL.

What about the solubility ([1]; Phosphal 50 PG, oil or lipid) of the same compound?
The solubility was greater than 2000 µg/mL.

What about the solubility ([1]; Phosphal 53 MCT, oil or lipid) of the same compound?
The solubility was greater than 2000 µg/mL.

And the solubility ([1]; Propylene Glycol, organic solvent or mixture)?
The solubility was less than 2000 µg/mL.

And the solubility ([1]; Safflower oil, oil or lipid)?
The solubility was less than 2000 µg/mL.

And the solubility ([1]; Soybean oil, oil or lipid)?
Its solubility is less than 2000 µg/mL.

What about the solubility ([1]; organic solvent or mixture, DMSO, measured visually at about 50 mg/mL, all compound dissolved) of the same compound?
The solubility was no less than 51000 µg/mL.

What about the solubility ([1]; organic solvent or mixture, N-methyl-2-pyrrolidone, measured visually at about 50 mg/mL, all compound dissolved) of the same compound?
The solubility was no less than 52000 µg/mL.

What about the Permeability class (Caco-2) of the same compound?
The Permeability class was “Borderline high”.

What about the Papp (Caco-2 permeability) of the same compound?
Its Papp is 7.9 ×10⁻⁶ cm/s.

And the efflux ratio (Caco-2 permeability)?
Its efflux ratio is 2.3.

What about the pKa (pKa) of the same compound?
Its pKa is 3.77.

With `Cc1onc2c1c(=O)n([C@H]1CCC[C@@H](NC(=O)[C@@H](O)c3ccc(F)nc3)C1)c1cccc(Cl)c21` [LSN 509207] as the compound, how does the “Hygroscopicity (VTI)” value (Hygroscopicity (VTI)) read?
Its value is “Non-hygroscopic”.

And the Permeability class (Caco-2)?
The Permeability class was “Borderline high”.

What about the Papp (Caco-2 permeability) of the same compound?
Its Papp is 7.4 ×10⁻⁶ cm/s.

And the efflux ratio (Caco-2 permeability)?
The efflux ratio was 2.7.

With `Cc1onc2c1c(=O)n([C@H]1CCC[C@@H](CNC(=O)c3ccc(F)nc3)C1)c1cccc(Cl)c21` [LSN 487355 phosphate salt] as the compound, how does the solubility ([2]; oil or lipid, excipient labrasol (FIG. 13)) read?
Its solubility is no less than 20000 µg/mL.

What about the solubility ([2]; organic solvent or mixture, excipient PEG-600 (FIG. 13)) of the same compound?
Its solubility is no less than 20000 µg/mL.

And the Moisture sorption isotherm (Dynamic vapor sorption; dynamic vapor sorption)?
Its Moisture sorption isotherm is “significant moisture sorption isotherm”.

What about the “Relative humidity at which deliquescence begins” value (Dynamic vapor sorption; dynamic vapor sorption) of the same compound?
The value was 80-90 % RH.

What about the “Crystallinity in dynamic vapor sorption” value (Dynamic vapor sorption; equilibrated under flowing nitrogen (0% RH)) of the same compound?
Its value is “loss of crystallinity”.
